Assay: gradient 5% acetonitrile 3 min, to 50% in 2 min, to 85% in 15 min, held 3 min, 100 µL/min
Conditions: column: Zorbax Extend-C18 2.1 x 50 mm; eluents: water / acetonitrile, 0.1% formic acid
Procedure, shortened: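 Pure standards were run in mixtures of ~100 molecules by HPLC coupled to a quadrupole time-of-flight mass spectrometer. The column was a Zorbax Extend-C18 (2.1 × 50 mm, 1.8 μm) at 100 μL/min, with water and acetonitrile each containing 0.1% formic acid, in positive and negative ionization mode. Dead and dwell volumes were 40 μL and 900 μL. Retention time was taken from computationally picked adduct peaks, each manually inspected, with data collected over 3 months.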

RP-LC retention time | SMILES
612 s | COc1cccc(-c2cc(N3CCN(C(=O)NC(C)C)CC3)ncn2)c1
1100 s | CC(C)c1noc(-c2cc(=O)n(CC(=O)Nc3ccc(F)c(Cl)c3)c3ccccc23)n1
857 s | Cn1nc(-c2nnc(-c3ccccc3)o2)c2c1CCN(S(=O)(=O)c1cccc3cccnc13)C2
1300 s | COc1ccc(-n2c(=O)c(C(=O)NC3CCCCC3)c(O)c3cccnc32)cc1
768 s | CC1=C(c2ccccc2)S(=O)(=O)N=C1N1CCCN(C(=O)NCC(C)C)CC1
898 s | CCc1ccccc1NC(=O)Cn1c(=O)nc(N2CCC(C)CC2)c2ccccc21
789 s | CN1C(=O)c2cc(C(=O)NCc3ccccc3Cl)nn2CC1(C)C(=O)NCc1ccccc1 (centres undefined)
1060 s | O=c1c2oc3ccccc3c2ncn1Cc1nc(-c2cccc(Br)c2)no1
934 s | O=C(Nc1ccc(F)cc1)N1CCCC1c1nc(-c2ccc(F)cc2F)no1 (centres undefined)
881 s | O=C(NCC1CCN(C(=O)Oc2ccccc2)CC1)Nc1ccccc1Cl
919 s | COc1ccc(OC)c(CCNC(=O)c2c(N3CCCC3=O)c3cc(F)ccc3n2C)c1
1090 s | CCc1cc(=O)n(CC(=O)Nc2ccc3c(c2)OCCO3)c(-c2cccc(F)c2)n1
688 s | COc1cc(C(=O)NC2CCN(c3cc(-c4ccccc4)[nH]n3)C2)cc(OC)c1OC (centres undefined)
724 s | COc1ccc(NS(=O)(=O)c2cc(-c3c(C)noc3NC(C)=O)ccc2OC)c(OC)c1
788 s | Cc1cc2c(cc1S(=O)(=O)N1CCCC1C(=O)N1CCc3ccccc31)OCC(=O)N2 (centres undefined)
702 s | Cn1c(-c2ccccc2)nn(CCNC(=O)C2COc3ccccc3O2)c1=O (centres undefined)
616 s | Cc1cc(C)cc(-n2ccn3c(CCCC(=O)N4CCN(c5ccccn5)CC4)nnc3c2=O)c1
720 s | COc1ccc(OC)c(NC(=O)N2C[C@@H](F)C[C@H]2C(=O)N2CCCCC2)c1
652 s | CC(=O)Nc1cc(C(=O)NCCC2=CCCCC2)c2ccc(C)nc2c1
754 s | COc1ccc(OC)c(-c2ccc(SCC(=O)Nc3cc(C)no3)nn2)c1
1020 s | COc1cc2ncc(-c3ccccc3)nc2cc1OC

RP-LC retention time | SMILES
768 s | O=C(Cn1ccc2c(SCc3ccccc3)nccc21)N1CCN(c2ccccc2)CC1
765 s | Cc1ccc(-n2cc3c(N4CCCC(C(=O)NCc5ccc(OC(C)C)cc5)C4)ncnc3n2)cc1 (centres undefined)
686 s | COc1cccc(CN2CCC(Oc3ccccc3-c3nc(-c4ccncc4)no3)C2)n1 (centres undefined)
1070 s | COc1ccc(-c2nnc(-c3ccccc3)o2)cc1S(=O)(=O)N1CCCCCC1
652 s | COc1ccccc1-c1nnc(NC(=O)C2CC(=O)N(c3ccc(F)cc3)C2)o1 (centres undefined)
836 s | COCCCNC(=O)C1c2ccccc2C(=O)N(C2CCCC2)C1c1cccs1 (centres undefined)
722 s | CC(NC(=O)c1cc(-c2ccc(F)cc2)cn1C)c1ccccn1 (centres undefined)
887 s | COc1ccccc1Oc1ccc(S(=O)(=O)Nc2cccc(C(C)=O)c2)cc1
949 s | O=C(CN1C(=O)CC(c2ccccc2)=Nc2cccnc21)Nc1ccc(F)cc1F
946 s | CC1=C(c2ccccc2)S(=O)(=O)N=C1N1CCCN(C(=O)CCC2CCCC2)CC1
984 s | CCn1c(=O)c(N2CCN(C(=O)Nc3cc(C)ccc3C)CC2)nc2ccccc21
740 s | Cc1nc(-c2csc(S(=O)(=O)N3CCC(C(=O)Nc4ccccn4)CC3)c2)no1
642 s | CN(C)S(=O)(=O)c1ccc(-c2nnc(C(=O)NCCN3CCc4ccccc4C3)o2)cc1
904 s | COc1ccc(-c2nc(CCS(=O)(=O)c3ccc(C)cc3)no2)cc1OC
1130 s | CCn1cc(-c2nc(CC(=O)Nc3cc(Cl)ccc3OC)cs2)c2cccnc21
1450 s | FC(F)(F)c1cc(-c2cccs2)n(-c2nc(-c3ccccc3)cs2)n1
933 s | COc1cccc(NC(=O)Nc2ccc3c(c2)CCN3S(=O)(=O)c2ccccc2)c1
836 s | COC(=O)c1cc(OCC(=O)Nc2ccc(F)cc2)c2cc(F)ccc2n1
719 s | O=C(Nc1cccc(-c2nnc3n2CCCC3)c1)C1(c2ccccc2)CC1
847 s | CCOc1ccc(S(=O)(=O)N2CCCC(C(=O)NCCCOC)C2)cc1C (centres undefined)

Continued, molecule first:

SMILES | RP-LC retention time
CC(C)Cn1cc(S(=O)(=O)Nc2ccc(F)cc2F)c2cccnc21 | 944 s
COc1ccc(Cl)c(Cn2c(NCC3CCCO3)nc3c2c(=O)n(C)c(=O)n3C)c1 (centres undefined) | 801 s
CC(C)(C)CC(=O)Nc1ccc2c(c1)N(C(=O)c1ccco1)CCC2 | 866 s
Cc1ccc(S(=O)(=O)c2nc(S(C)(=O)=O)sc2NCc2ccccn2)cc1 | 763 s
Cc1ccc(CN2CCn3c(nn(C)c3=O)C2)cc1C | 662 s
O=C(Cc1cccc(C(F)(F)F)c1)Nc1cccn2ncnc12 | 837 s
CC(C)CNc1ccc2nncn2n1 | 644 s
CN(C)CC1CCN(C(=O)NC2CCCCC2)CC1 | 570 s
Cc1ccc(CSc2nc(CC(=O)NCc3cccnc3)cs2)cc1 | 605 s
CCc1nnc(-c2ccc3ccn(CC(=O)Nc4ccc(Cl)cn4)c3c2)o1 | 843 s
CC(NC(=O)c1ccco1)c1nc(-c2ccc(N3CCCCCC3)cc2)no1 (centres undefined) | 1110 s
O=c1c2nc(-c3ccc4c(c3)OCO4)cn2ccn1-c1ccc(F)cc1 | 772 s
O=C(NC1CC1)C1CCc2sc(C(=O)N3CCCCCC3)cc2C1 (centres undefined) | 736 s
CCC(=O)NC(C)c1nc(-c2ccc(Cl)cc2)no1 (centres undefined) | 823 s
CC1=C(c2ccc(C(C)C)cc2)S(=O)(=O)N=C1N1CCC(C(=O)NCCN2CCCC2)CC1 | 693 s
CCC(CN(C)Cc1ccccc1)NC(=O)CN(c1ccccc1)S(=O)(=O)N(C)C (centres undefined) | 686 s
CCc1cc2c(cc1N1CCC(N3CCOCC3)CC1)C(C)(C)c1[nH]c3cc(C#N)ccc3c1C2=O | 740 s
CCOC(=O)Cc1ccc(NC(=O)N2CCCC2c2cccs2)cc1 (centres undefined) | 921 s
O=C(Nc1ccc(F)c(F)c1)C1CCCN(S(=O)(=O)Cc2ccc(F)cc2)C1 (centres undefined) | 990 s
CC(C)CNS(=O)(=O)c1cccc2cnccc12 | 647 s
Fc1ccc(-c2nnc(-c3ccc(-n4ccnc4)nc3)o2)c(F)c1 | 645 s
Cc1ccc2nc(NC(=O)CSc3nnc(Cc4c(C)[nH]c(=O)[nH]c4=O)o3)sc2c1 | 643 s
Cc1ccc(S(=O)(=O)c2cnc(N3CCC(C(N)=O)(N4CCCCC4)CC3)nc2N)cc1 | 613 s
CCc1nc2cc(-c3noc(-c4n[nH]c5c4CCCC5)n3)ccc2o1 | 1000 s

SMILES | RP-LC retention time
CCN1CCN(C(=O)CN2C(=O)COc3ccc(C(=O)N4CCCC4)cc32)CC1 | 571 s
Cc1ccc(-c2noc(-c3cccn4c(=O)n(Cc5ccc6c(c5)OCO6)nc34)n2)cc1 | 1010 s
CCN1CCN(C2CCN(C(=O)c3ccco3)CC2)C1=O | 627 s
COc1ccc(-c2csc3c(=O)n(CC(C)C)cnc23)cc1 | 1020 s
COc1cccc(S(=O)(=O)N2CCC3(CC2)CC(OCC2CC2)CCO3)c1 (centres undefined) | 1010 s
O=C([C@@H]1C[C@H](F)CN1C(=O)Cc1ccc(F)cc1)N1CCCCC1 | 601 s
CC(=O)N1CCN(C(=O)c2ccc(C(=O)O)cc2)CC1 | 530 s
COCCN1C(=O)[C@H]2CN(Cc3ccc(C)cc3C)C[C@H]2C1=O | 644 s
COc1cc(OC)c(NC(=O)CCSc2nc3c(=O)n(C)c(=O)n(C)c3n2C)cc1Cl | 735 s
Cc1cc2c(=O)n(CC(=O)Nc3cc(F)ccc3F)ccc2s1 | 817 s
O=C1CN(Cc2ccccc2)C(=O)C(Cc2ccccc2)N1 (centres undefined) | 656 s
O=C(Cn1nc2c3cc(F)ccc3ncn2c1=O)Nc1ccc(Cl)cc1 | 744 s
Cc1ccc(CN2CC(CO)C3(CCNCC3)C2)cc1C (centres undefined) | 551 s
CCc1nnc(C2CN(C)CC23CCN(S(=O)(=O)c2cccc(Cl)c2)CC3)o1 (centres undefined) | 645 s
CCOC(=O)c1noc2ncnc(N(Cc3ccccc3OC)C3CCN(C)CC3)c12 | 667 s
CC(=O)Nc1ccc(NC(=O)Cn2cccc(-c3nc(-c4ccc(Cl)cc4)no3)c2=O)cc1 | 937 s
Cc1sc(-c2cc(C(F)(F)F)on2)cc1S(=O)(=O)Nc1ccc(Br)cc1F | 1230 s
O=C(NCCOc1cccc(C(F)(F)F)c1)C1CCCC1 | 880 s
CN(C)c1nc2ncn3c(=O)n(CC(=O)NCCc4ccc(Cl)cc4)nc3c2s1 | 706 s
CN(CC1CCOCC1)C(=O)Nc1ccc(C(F)(F)F)cc1 | 812 s
COc1ccc(CCc2nc(C3CC(=O)N(c4ccc(F)c(Cl)c4)C3)no2)cc1 (centres undefined) | 1040 s
Cc1cc(F)ccc1NS(=O)(=O)c1ccc2c(c1)C(=O)N(C)c1ncccc1O2 | 924 s
CCCN(CC1CCOC1)S(=O)(=O)c1cccc(OC)c1 (centres undefined) | 881 s
CCn1c(CCNC(=O)c2cc(F)ccc2F)nc2cccnc21 | 641 s

Reference: the METLIN SMRT retention time set (Domingo-Almenara et al. 2019)
